Laboratory results published in article PMC6025875, “Genetic manipulation of Leishmania donovani threonyl tRNA synthetase facilitates its exploration as a potential therapeutic target” (PLoS Neglected Tropical Diseases, 2018).

Tests used:
[1] = biological target: T1, threonyl tRNA synthetase (LdThrRS) (Leishmania donovani, UniProt A0A3S7X901); experiment: ITC at […]°C (N = […]); also inhibits aminoacylation of the purified enzyme, IC50 […]; assay type: binding
T1 construct: gene LdCL_350019100; full-length recombinant LdThrRS with N-terminal His6 tag (rLdThrRS, pET30a, E. coli BL21 (DE3))

purified protein = substrate: C[C@@H](O)[C@H](N)C(=O)O; experiment: purified protein

Molecule: C[C@@H]1C[C@H](C)C[C@H](C)[C@@H](O)CC(=O)O[C@H]([C@@H]2CCC[C@H]2C(=O)O)C/C=C/C=C(/C#N)[C@H](O)[C@@H](C)C1 [borrelidin]
- Kd [1]: 40 nM

B1: threonyl tRNA synthetase (LdThrRS) (Leishmania donovani) (protein)
chain: MSGKKKAAEATVDLATLAEPGFWRQRVEIFEQLWQQQQNRYESMKAPIKVSLPDGKVMDAESWVTCPLDIAKRLSNSLPDKVIVARVNEALWDLTRPFEADCQLELLDWDDKDAREVFWHSSSHVLGYALERIFDTKLSVGPALEEGGFFYEGLTNRPVSESDYKAIESAMQELVKQKMPYQRLEVSKEDALRLFGYTEFKSKILASKVPDGGSCTVYRCGMLIDPCRGPHLPDTGRVKAFAVTKNSSSYFEGKAENEVLQRVYGISFPKNPMLTEWKTIQEEAAKRDHRVIGRQQNLFNFHEVSPGSAFWLPHGTRIYNTLVEFLRKKYRRCGFQEVISPNMYSSKLWMVSGHWEKYADNMFCTKCEKEDFGLKPMNCPGHCIMFASQPHSYKELPIRYADFGVLHRNELSGALTGLTRVRRFQQDDAHIFCRMDQITDEMEGQMQFLSDVYGVLGFKFYFYHSTRPANKLGSDALWDQSESYLRTALNRFCGIPEELPDPLHPDQRFHYDGKPDSVKKMKALMKKAERCEDPNAWKGPTNGGDGWIENAGDGAFYGPKIDIVVEDALRRRHQCATIQLDFNLPSRFGLKYTLPAAEKDETTVSPTEKQKHADPALTASSPAVEDCVSKPKPGTYEAAVRDLGIDLELDANQARPVMIHRAILGSLERSIAILCEHFGGDWPFWLSPRQVMVVPVSASNYEYSQQVRDTMHDAGFHADVDNGAATLDKKIRNAEKARYNFILVVGQKEQDATAVNIRARGEKRLGNKSLVEAVQWLKELADTHNREY
- Km (purified protein): 250 ± 30 µM
